The text below walks through data of patent publication US10562861B2, “Carboxylic acid compounds” (Sumitomo Dainippon Pharma Co., Ltd., priority 2012, dated 2020).

One experiment has as its system Renca mouse tumour cells. The experiment is described as follows: Tumour growth studies in Renca, a murine syngeneic renal carcinoma tumour model. It is filed as in vivo. To be noted: Balb/C mice, Renca s.c., vs 0.5% methylcellulose. The procedure: Experiments were conducted on female mice (Balb/C genotype, at least 5 weeks old). Renca mouse tumour cells (Cancer Chemother Pharmacol. 1995; 36 (1): 7-12) were kindly provided by Dr. T. Fujioka at Department of Urology, Iwate Medical University School of Medicine. Renca mouse tumour cells (5×10^4) were implanted subcutaneously in the flank of mice on day 0. Mice were treated with either drug vehicle (0.5% methylcellulose), the compound of Example 3 (0.3 mg/kg once a week) or the compound of Example 4 (3 mg/kg once a week) administered orally (p. o.) on days 1, 8, and 15. Tumour volumes were assessed at least twice weekly by bilateral vernier caliper measurements.
Tumour growth inhibition from the start of treatment was assessed by comparison of the differences in tumour growth rate between control and the compound of Example 3 treated groups, as shown in FIG. 9.
Tumour growth inhibition from the start of treatment was assessed by comparison of the differences in tumour growth rate between control and the compound of the Example 4 treated groups, as shown in FIG. 10.

The subject of another experiment is CT26 mouse tumour cells. The experiment is described as follows: Survival studies in CT26, a murine syngeneic colon carcinoma tumour model. It is filed as in vivo. The following applies: Balb/C mice, CT26 s.c., vs control or RT. The procedure: Experiments were conducted on female mice (Balb/C genotype, at least 5 weeks old). CT26 mouse tumour cells (CRL-2638) were purchased from ATCC. CT26 mouse tumour cells (1×10^6) were implanted subcutaneously in the flank of mice on day 0. Mice in radiotherapy alone (RT) group and combination group were anesthetized and received radiation therapy (2 Gy) at days 7, 8, 9, 10, and 11. Mice in combination group were also treated with a compound of Example 3 (30 mg/kg once a week) administered orally (p.o.) or Example 4 (5 mg/kg once a week) administered intravenously (i. v.) on days 7, 14, 22, and 27. Tumour volumes were assessed at least twice weekly by bilateral vernier caliper measurements. Survival period was determined by the time taken for tumours to reach 4 times the volume at the time of treatment.

With `CCC[C@@H](CCO)Nc1nc(N)nc(C)c1Cc1ccc(CN(CC(=O)O)CC(F)F)cc1OC` [Example 3, (S)-2-((4-((2-amino-4-(1-hydroxyhexan-3-ylamino)-6-methylpyrimidin-5-yl)methyl)-3-methoxybenzyl)(2,2-difluoroethyl)amino)acetic acid], in the experiment on Renca mouse tumour cells (0.3 mg/kg once a week p.o. on days 1, 8, 15, FIG. 9), the Tumour growth inhibition result is listed as “inhibited tumour growth”. The “Survival period (time for tumours to reach 4 times the volume at treatment)” value with CT26 mouse tumour cells (RT 2 Gy days 7-11 plus 30 mg/kg once a week p.o., FIG. 12) is recorded as “survived significantly longer”.
In the case of `CCC[C@@H](CCO)Nc1nc(N)nc(C)c1Cc1ccc(CN(CC(=O)O)CC(F)(F)F)cc1OC` [Example 4, (S)-2-((4-((2-amino-4-(1-hydroxyhexan-3-ylamino)-6-methylpyrimidin-5-yl)methyl)-3-methoxybenzyl)(2,2,2-trifluoroethyl)amino)acetic acid], the Tumour growth inhibition entry in the experiment with Renca mouse tumour cells (3 mg/kg once a week p.o. on days 1, 8, 15, FIG. 10) is on record as “inhibited tumour growth”. Further, the “Survival period (time for tumours to reach 4 times the volume at treatment)” value in the experiment with CT26 mouse tumour cells (RT 2 Gy days 7-11 plus 5 mg/kg once a week i.v., FIG. 13) is given as “survived significantly longer”.
